What was measured:
[1] = molecular target: T1, human mAChR M1 (Homo sapiens, UniProt P11229); assay: mAChR M1 cell-based functional assay (calcium mobilization), PAM activity: increase in the EC20 acetylcholine response; conditions: CHO-K1 cells expressing hM1; potentiation of EC20 acetylcholine response
T1 construct: host or cells: CHO-K1 cells (ATCC), stably transfected using Lipofectamine2000
T1 sequence (P11229 1-460): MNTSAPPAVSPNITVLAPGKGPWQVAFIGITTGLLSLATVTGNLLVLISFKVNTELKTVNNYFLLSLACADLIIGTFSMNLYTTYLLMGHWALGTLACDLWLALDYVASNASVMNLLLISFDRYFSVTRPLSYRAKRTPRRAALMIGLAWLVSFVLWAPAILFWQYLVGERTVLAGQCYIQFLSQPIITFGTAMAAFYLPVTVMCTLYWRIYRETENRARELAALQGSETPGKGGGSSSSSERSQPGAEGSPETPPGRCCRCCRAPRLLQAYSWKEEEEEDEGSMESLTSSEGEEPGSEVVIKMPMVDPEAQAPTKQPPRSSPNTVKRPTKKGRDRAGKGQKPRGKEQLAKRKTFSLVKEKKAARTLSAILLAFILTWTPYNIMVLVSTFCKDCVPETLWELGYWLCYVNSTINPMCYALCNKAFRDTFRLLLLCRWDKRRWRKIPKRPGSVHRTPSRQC
In short: (§1)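 Fluorescence ratio calcium read-out (Fluo-4 AM, FDSS 6000) in human M1-expressing CHO-K1 cells. Agonist activity taken as concentration-dependent rise after compound addition; potentiation as enhancement of a subsequent EC20 acetylcholine challenge. Curves from 11-point threefold dilutions fitted by four-parameter logistic; Emax expressed versus acetylcholine maximum.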

[2] = molecular target: T1, human mAChR M1; assay: mAChR M1 cell-based functional assay (calcium mobilization), agonist activity upon compound addition; conditions: CHO-K1 cells expressing hM1; for EC50: compound alone, before acetylcholine addition; for Emax: relative to the maximum for acetylcholine
In short: as §1

| Structure (SMILES) | EC50 [1] [µM] | Emax [1] [%] | EC50 [2] [µM] | Emax [2] [%] |
| --- | --- | --- | --- | --- |
| Cn1ccc(-c2ccc(Cn3cc(C(=O)NC4CC5(COC5)C4)c4occc4c3=O)c(F)c2)n1 [Compound D10, 5-(2-fluoro-4-(1-methyl-1H-pyrazol-3-yl)benzyl)-4-oxo-N-(2-oxaspiro[3.3]heptan-6-yl)-4,5-dihydrofuro[3,2-c]pyridine-7-carboxamide] | > 10 | 25 | > 10 | < 5 |
| Cn1ccc(-c2ccc(Cn3cc(C(=O)NC4CCOC(C)(C)C4)c4occc4c3=O)c(F)c2)n1 (centres unmarked) [Compound D11, N-(2,2-dimethyltetrahydro-2H-pyran-4-yl)-5-(2-fluoro-4-(1-methyl-1H-pyrazol-3-yl)benzyl)-4-oxo-4,5-dihydrofuro[3,2-c]pyridine-7-carboxamide] | > 10 | 24 | > 10 | < 5 |
| Cn1cc(-c2ccc(Cn3cc(C(=O)N[C@H]4CCOC[C@@H]4O)c4occc4c3=O)c(F)c2)cn1 [Compound D12, 5-(2-fluoro-4-(1-methyl-1H-pyrazol-4-yl)benzyl)-N-((3R,4S)-3-hydroxytetrahydro-2H-pyran-4-yl)-4-oxo-4,5-dihydrofuro[3,2-c]pyridine-7-carboxamide] | 4.02 | 67 | > 10 | < 5 |
| Cn1cc(-c2ccc(Cn3cc(C(=O)N[C@H]4CCCC[C@@H]4O)c4occc4c3=O)c(F)c2)cn1 [Compound D13, 5-(2-fluoro-4-(1-methyl-1H-pyrazol-4-yl)benzyl)-N-((1S,2S)-2-hydroxycyclohexyl)-4-oxo-4,5-dihydrofuro[3,2-c]pyridine-7-carboxamide] | 2.12 | 81 | > 10 | 11 |
| Cn1cc(-c2ccc(Cn3cc(C(=O)N[C@H]4CCC[C@@H]4O)c4occc4c3=O)c(F)c2)cn1 [Compound D14, 5-(2-fluoro-4-(1-methyl-1H-pyrazol-4-yl)benzyl)-N-((1S,2S)-2-hydroxycyclopentyl)-4-oxo-4,5-dihydrofuro[3,2-c]pyridine-7-carboxamide] | > 10 | 51 | > 10 | < 5 |
| Cn1cc(-c2ccc(Cn3cc(C(=O)N[C@H]4CCCCC[C@@H]4O)c4occc4c3=O)c(F)c2)cn1 [Compound D16, 5-(2-fluoro-4-(1-methyl-1H-pyrazol-4-yl)benzyl)-N-((1S,2S)-2-hydroxycycloheptyl)-4-oxo-4,5-dihydrofuro[3,2-c]pyridine-7-carboxamide] | 2.02 | 75 | > 10 | 8 |
| Cn1cc(-c2ccc(Cn3cc(C(=O)NC4CC5(COC5)C4)c4occc4c3=O)c(F)c2)cn1 [Compound D17, 5-(2-fluoro-4-(1-methyl-1H-pyrazol-4-yl)benzyl)-4-oxo-N-(2-oxaspiro[3.3]heptan-6-yl)-4,5-dihydrofuro[3,2-c]pyridine-7-carboxamide] | > 10 | 40 | > 10 | < 5 |
| Cn1cc2c(-c3cc(F)c(Cn4cc(C(=O)N[C@H]5CCOC[C@@H]5O)c5occc5c4=O)c(F)c3)cccc2n1 [Compound D18, 5-(2,6-Difluoro-4-(2-methyl-2H-indazol-4-yl)benzyl)-N-((3R,4S)-3-hydroxytetrahydro-2H-pyran-4-yl)-4-oxo-4,5-dihydrofuro[3,2-c]pyridine-7-carboxamide] | 0.28 | 85 | 2.27 | 11 |
| Cn1cc2c(-c3cc(F)c(Cn4cc(C(=O)N[C@H]5CCCC[C@@H]5O)c5occc5c4=O)c(F)c3)cccc2n1 [Compound D19, 5-(2,6-difluoro-4-(2-methyl-2H-indazol-4-yl)benzyl)-N-((1S,2S)-2-hydroxycyclohexyl)-4-oxo-4,5-dihydrofuro[3,2-c]pyridine-7-carboxamide] | 0.43 | 82 | > 10 | 9 |
| Cn1cc2c(-c3cc(F)c(Cn4cc(C(=O)N[C@H]5CCC[C@@H]5O)c5occc5c4=O)c(F)c3)cccc2n1 [Compound D20, 5-(2,6-difluoro-4-(2-methyl-2H-indazol-4-yl)benzyl)-N-((1S,2S)-2-hydroxycyclopentyl)-4-oxo-4,5-dihydrofuran[3,2-c]pyridine-7-carboxamide] | 0.81 | 77 | > 10 | < 5 |

Other lines, results leading:

| EC50 [1] [µM] | Emax [1] [%] | EC50 [2] [µM] | Emax [2] [%] | Structure (SMILES) |
| --- | --- | --- | --- | --- |
| 0.95 | 81 | > 10 | 9 | Cn1cc2c(-c3cc(F)c(Cn4cc(C(=O)N[C@H]5CCCCC[C@@H]5O)c5occc5c4=O)c(F)c3)cccc2n1 [Compound D22, 5-(2,6-difluoro-4-(2-methyl-2H-indazol-4-yl)benzyl)-N-((1S,2S)-2-hydroxycycloheptyl)-4-oxo-4,5-dihydrofuro[3,2-c]pyridine-7-carboxamide] |
| 4.12 | 64 | > 10 | < 5 | Cn1cc2c(-c3cc(F)c(Cn4cc(C(=O)NC5CCOCC5)c5occc5c4=O)c(F)c3)cccc2n1 [Compound D23, 5-(2,6-difluoro-4-(2-methyl-2H-indazol-4-yl)benzyl)-4-oxo-N-(tetrahydro-2H-pyran-4-yl)-4,5-dihydrofuro[3,2-c]pyridine-7-carboxamide] |
| 2.48 | 70 | > 10 | < 5 | Cn1cc2c(-c3cc(F)c(Cn4cc(C(=O)NC5CC6(COC6)C5)c5occc5c4=O)c(F)c3)cccc2n1 [Compound D24, 5-(2,6-difluoro-4-(2-methyl-2H-indazol-4-yl)benzyl)-4-oxo-N-(2-oxaspiro[3.3]heptan-6-yl)-4,5-dihydrofuro[3,2-c]pyridine-7-carboxamide] |
| > 10 | 53 | > 10 | < 5 | Cn1cc2c(-c3cc(F)c(Cn4cc(C(=O)NCC5CCCO5)c5occc5c4=O)c(F)c3)cccc2n1 (centres unmarked) [Compound D25, 5-(2,6-difluoro-4-(2-methyl-2H-indazol-4-yl)benzyl)-4-oxo-N-((tetrahydrofuran-2-yl)methyl)-4,5-dihydrofuro[3,2-c]pyridine-7-carboxamide] |
| > 10 | 34 | > 10 | < 5 | Cn1ccc(-c2ccc(Cn3cc(C(=O)N[C@H]4CCOC[C@@H]4O)c4sccc4c3=O)c(F)c2)n1 [Compound D26, 5-(2-fluoro-4-(1-methyl-1H-pyrazol-3-yl)benzyl)-N-((3R,4S)-3-hydroxytetrahydro-2H-pyran-4-yl)-4-oxo-4,5-dihydrothieno[3,2-c]pyridine-7-carboxamide] |
| > 10 | 37 | > 10 | < 5 | Cn1ccc(-c2ccc(Cn3cc(C(=O)N[C@H]4CCCC[C@@H]4O)c4sccc4c3=O)c(F)c2)n1 [Compound D27, 5-(2-fluoro-4-(1-methyl-1H-pyrazol-3-yl)benzyl)-N-((1S,2S)-2-hydroxycyclohexyl)-4-oxo-4,5-dihydrothieno[3,2-c]pyridine-7-carboxamide] |
| > 10 | 40 | > 10 | < 5 | Cn1ccc(-c2ccc(Cn3cc(C(=O)N[C@H]4CCCCC[C@@H]4O)c4sccc4c3=O)c(F)c2)n1 [Compound D28, 5-(2-fluoro-4-(1-methyl-1H-pyrazol-3-yl)benzyl)-N-((1S,2S)-2-hydroxycycloheptyl)-4-oxo-4,5-dihydrothieno[3,2-c]pyridine-7-carboxamide] |
